Test results: the METLIN SMRT retention time set (Domingo-Almenara et al. 2019)

Test: gradient 5% acetonitrile 3 min, to 50% in 2 min, to 85% in 15 min, held 3 min, 100 µL/min
Conditions: column: Zorbax Extend-C18 2.1 x 50 mm; eluents: water / acetonitrile, 0.1% formic acid
Method in brief: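 Retention times come from adduct peaks that were picked computationally and then checked by hand. The standards, pure and pooled in mixtures of ~100 molecules, were run on a Zorbax Extend-C18 column (2.1 × 50 mm, 1.8 μm) at 100 μL/min with water and acetonitrile, each with 0.1% formic acid. Detection was by quadrupole time-of-flight mass spectrometry in positive and negative ionization mode, with a dead volume of 40 μL and a dwell volume of 900 μL.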

Structure (SMILES)	RP-LC retention time
COc1ccc(NC(=O)N2CCC(n3cnc4cccnc43)CC2)cc1	617 s
Cc1ccccc1NC(=O)Cn1cnc2c(c1=O)CCCC2	662 s
C[C@@H](NC(=O)c1cc(C(=O)N[C@@H](Cc2ccccc2)[C@H](O)CNC2CC2)cc(N(C)S(C)(=O)=O)c1)c1ccccc1	705 s
CN(C)C(=O)c1csc(S(=O)(=O)N2CCC(C(=O)N3CCc4ccccc43)CC2)c1	809 s
CCN1CCn2cc(S(=O)(=O)Nc3ccccc3OC)cc2C1=O	690 s
CCOc1ccc(-c2cc3n(n2)CCCN(C(C)=O)C3)cc1	637 s
O=C(NCc1cc(F)cc(F)c1)c1c(O)c2cccnc2n(-c2ccc(F)cc2)c1=O	1180 s
O=[N+]([O-])c1cccc(C2SCCN2S(=O)(=O)c2ccc(Br)cc2)c1 (stereo not given)	1020 s
Cc1ccc(C2Cn3nnc(C(=O)N4CCN(C(=O)c5ccco5)CC4)c3CO2)cc1 (stereo not given)	844 s
Cc1cc2c(cc1S(=O)(=O)N1CCCC1C(=O)Nc1ccc(F)c(Cl)c1)OCC(=O)N2 (stereo not given)	965 s
CCOC(=O)C1CCc2sc(NC(=O)Cc3noc4ccccc34)nc21 (stereo not given)	818 s
CCOC(=O)c1[nH]c(C)c(C(=O)N2CCC(CC(=O)NC3CCCCC3)CC2)c1C	719 s
O=C(NC(c1ccccc1)c1ccccc1)N1CCN(CC(F)(F)F)CC1	886 s
COc1ccc(NC2=C(c3ccccc3)C(=O)N(Cc3ccccc3)C2=O)cc1	1140 s
CCN1C(=O)COc2ccc(-c3noc(-c4ccccc4C(F)(F)F)n3)cc21	1140 s
O=C(Cc1csc2nc(-c3cccc(Br)c3)cn12)NC1CCCC1	888 s
O=C(Nc1ccc2c(c1)CN(S(=O)(=O)c1ccc3c(c1)CCC3)CCO2)C1CC1	932 s
COCC(=O)N1CCCCCCNC(=O)[C@@H]2CCCC[C@@H]21	659 s
CCOC(=O)c1cc(C)nc2c1c(=O)n(Cc1cccc(C)c1)c(=O)n2C	1130 s
CC(C)OCCCNC(=O)C(=O)Nc1ccc(C(C)C)cc1	983 s
CCOc1ccccc1N(C)C(=O)C1CCCN(c2ncnc3c2nc2n3CCCCC2)C1 (stereo not given)	850 s
CC(C)c1ccc(S(=O)(=O)N2CCC3(CC2)NCCN=C3NCc2ccccc2)cc1	791 s
CCCN(Cc1ccsc1)C(=O)c1ccc(OC)c(OC)c1OC	880 s

Structure (SMILES)	RP-LC retention time
CC1=NOC(C)(CNS(=O)(=O)c2ccc(F)cc2)C1 (stereo not given)	728 s
Cc1ccccc1CNC(=O)C1(C)CCCN(C(=O)Nc2cc(Cl)ccc2C)C1 (stereo not given)	1090 s
Cc1ccc(S(=O)(=O)Nc2ccc3c(c2)nc(-c2ccc(C(=O)NC(C)C)cc2)n3C)cc1	695 s
Cc1ccc(CN(C(=O)c2ccc(OCC(C)C)cc2)C2CCS(=O)(=O)C2)o1 (stereo not given)	1060 s
Cc1cnc(CC2CCN(C(=O)C(C)C)C2)n1C1CC1 (stereo not given)	557 s
Cc1cc(C)cc(-c2nnc(Cc3nc(-c4cccc(F)c4)no3)o2)c1	1150 s
COCC(=O)N1CCCN(C2=NS(=O)(=O)C(c3ccc(Cl)cc3)=C2C)CC1	723 s
COc1ccccc1CNc1ncnc2c1CCC2	621 s
Cc1cccc(NC(=O)Nc2cnn(-c3ncncc3N3CCOCC3)c2)c1C	612 s
Cc1ccc(C)c(NC(=O)N2CCN(c3ccc(=O)n(-c4ccccc4)n3)CC2)c1	820 s
CC(C)(C)n1cc(C(=O)c2ccccc2)cc1-c1ccccc1	1350 s
O=C(CSc1ccc(-c2ccc3c(c2)OCO3)nn1)c1cccs1	854 s
CCCCn1c(CNC(=O)c2cccs2)nnc1SCC(=O)OCC	713 s
CCCOc1ccc(C(=O)N(Cc2ccc(Br)o2)C2CCS(=O)(=O)C2)cc1 (stereo not given)	1010 s
COc1ccc(C(O)CN2CCN(c3ccc(F)cc3)CC2)cc1OC (stereo not given)	636 s
CCc1nccn1Cc1nc(-c2cc(OC)c(OC)c(OC)c2)no1	621 s
C=C(C)CNc1nc(-c2ccccc2)c(-c2ccccc2)s1	1040 s
CC(C)CCn1nc2c(S(=O)(=O)N3CCCCCC3)cccn2c1=O	982 s
O=c1n(Cc2cccc(F)c2)nc2c(-c3nc(-c4cccc(F)c4)no3)cccn12	1030 s
Cc1ccc(-c2ccc(=O)n(Cc3noc(C(=O)NCCc4ccc(S(N)(=O)=O)cc4)n3)n2)cc1	781 s
CCCCCn1c(=O)c2ccccc2n(Cc2nc(-c3ccc(C)cc3)no2)c1=O	1350 s
CN1CCN(C(=O)c2cc(-c3ccccc3)cn2C)CC1	619 s
CCn1cc(C)c(C(=O)O)c1CC(=O)NCc1ccco1	702 s

Structure (SMILES)	RP-LC retention time
CCc1cc(=O)n(CC(=O)NCc2ccc(Cl)cc2)c(N)n1	627 s
O=C(c1ccsc1)N1CCc2cc(-c3csc(C4CC4)n3)ccc21	1120 s
Cc1cc(C)cc(NC(=O)Cc2nc(-c3ccccn3)n[nH]2)c1	669 s
Cc1cccc(OCC(=O)N2CCCC(c3n[nH]c(C4CC4)n3)C2)c1 (stereo not given)	687 s
CCN(CC)S(=O)(=O)c1ccc2c(c1)N(CC(=O)N1CCCCC1)C(=O)C1CCCCN21 (stereo not given)	905 s
COCCOC1CN(C2CCN(C(=O)c3ccc(C)s3)CC2)C12CCCCC2 (stereo not given)	656 s
COc1ncc(C(=O)NC2CCC(C)CC2)cn1 (stereo not given)	748 s
Cc1ccc(S(=O)(=O)N2CC(=O)N(c3ccccc3C)C(C)(C(=O)NC3CCCC3)C2)cc1 (stereo not given)	991 s
CCOC(=O)c1nc(NCc2ccc(C)cc2)c2ccccc2n1	823 s
O=C(NCc1ccccc1)C1CCCN(c2ncnc3c2nc2n3CCCCC2)C1 (stereo not given)	732 s
COc1cc(NC(=O)CSc2ncc(-c3cccc(Cl)c3)o2)cc(OC)c1OC	896 s
CN(C)c1nc(Nc2ccc3c(c2)OCO3)c2cnn(-c3ccccc3)c2n1	1220 s
CN(C)c1cccc(C(=O)N2CCCN(c3cc(-c4ccc5c(c4)OCO5)[nH]n3)CC2)c1	680 s
Cc1cccc(S(=O)(=O)N2CCCC(OCc3nc(C)no3)C2)c1 (stereo not given)	877 s
O=C(Nc1c(C(=O)NCCc2ccccc2)[nH]c2ccc(F)cc12)c1ccccc1	998 s
Cc1cccc(CNC(=O)C2=C3CCCN3c3ccc(F)cc3S2(=O)=O)c1	936 s
Cc1c(C(=O)NCCCN2CCOCC2)oc2ccc3c(c12)C(O)CC1(CCCCC1)O3 (stereo not given)	688 s
NC(=O)Cc1ccc(NS(=O)(=O)/C=C/c2ccccc2)cc1	650 s
Cc1cccc(NC(=O)N2CCN(c3cc(N4CCCCC4)ncn3)CC2)c1C	596 s
O=c1c2nc(-c3ccc(F)cc3F)cn2ccn1-c1ccc(Cl)cc1	921 s
CNC(=O)C1CN(C(=O)c2ccc(OC)cc2)CC12CCCC2 (stereo not given)	570 s
COC(=O)c1cccc(NC(=O)N(C)CCc2noc(C3CCCCC3)n2)c1	937 s
Cc1cccc(NC(=O)CN2C(=O)C3CCCCN3c3ccc(S(=O)(=O)N4CCCCC4)cc32)c1 (stereo not given)	1080 s

Structure (SMILES)	RP-LC retention time
CCn1nnc2c(N3CCN(S(=O)(=O)c4cccc(C(F)(F)F)c4)CC3)ncnc21	894 s
CC(C)c1csc(-c2csc(S(=O)(=O)NCc3ccc(F)cc3)c2)n1	1120 s
O=C(CSc1ncnc2c1nnn2Cc1ccc(F)cc1)N1CCCC1	764 s
Cc1cc(C(=O)N2CCCn3cc(-c4ccccc4F)nc32)nn1C	656 s
CCOc1cccc(-c2noc(Cn3ccn4nc(-c5ccc(C)c(C)c5)cc4c3=O)n2)c1	1220 s
COc1ccc(-c2noc(C3CC(=O)N(c4ccc5c(c4)OCO5)C3)n2)cc1OC (stereo not given)	886 s
COCCOc1ccc(C(=O)N2CCNC(=O)C2CC(=O)OC2CCCCC2)cc1 (stereo not given)	720 s
CCN(CC)C(=O)c1ccc2c(c1)N(CC(=O)NC1CCCCCC1)C(=O)CO2	768 s
CC(=O)N1CCCC1c1nc(C2CN(C(=O)CCn3cc(C)cn3)C2)no1 (stereo not given)	604 s
COc1ccc(NC(=O)N2CCc3nc[nH]c3C2)cc1Cl	580 s
Cc1ccc(C)c(-c2nc(-c3cccc(-c4ccnn4C)c3)no2)c1	1110 s
O=C(Nc1c(C(=O)N2CCN(c3ccccn3)CC2)oc2ccccc12)c1cccc([N+](=O)[O-])c1	744 s
CC(C)n1c(C2CCN(C(=O)c3cccc(N(C)C)c3)C2)nc2ccncc21 (stereo not given)	529 s
O=C(Nc1cnc(N2CCCCCC2)nc1)C1CCCC1	844 s
O=c1ccc(-c2ccc3c(c2)OCO3)nn1Cc1nc(-c2ccc(F)c(Br)c2)no1	1100 s
COc1ccc(-c2c(C(=O)Nc3ccccc3OC)nc3ccccn23)cc1	991 s
COC(=O)c1cc(S(=O)(=O)N2CCCC2C(=O)NCc2ccccc2)cn1C (stereo not given)	781 s
Cc1nc(-c2ccc3c(c2)CCN3C(=O)c2cccs2)cs1	953 s
COCC(=O)N1CCC(Oc2nccnc2N(C)C)C1 (stereo not given)	598 s
CCCc1nc(-c2c(C)cc(C)nc2NC(=O)c2cc(C)cc(C)c2)no1	784 s
O=S(=O)(c1ccccc1)c1nnn2c1nc(N1CCN(c3ccccn3)CC1)c1ccccc12	677 s
